# From patent US6589762B1, “Calcafluor screen for chitin biosynthesis inhibitors” (priority 1993, dated 2003)
# Legend:
# Aspergillus nidulans = experiment: Calcofluor rescue with filamentous fungus instead of S. cerevisiae; assay type: cell-based; conditions: very high calcofluor concentrations
# Description: (§1) Attempts are made to replace S. cerevisiae with several species of filamentous fungi, including Neurospora crassa, Aspergillus nidulans, Botrytis cinerea, Pseudocercosporella herpotrichoides, but all the species respond differently from S. cerevisiae. N. crassa and A. nidulans require very high concentrations of calcofluor to inhibit growth.
# Neurospora crassa = experiment: as above; assay type: cell-based; conditions: very high calcofluor concentrations
# Description: as §1
# [1] = test system: Saccharomyces cerevisiae strain Y294; experiment: Calcofluor rescue screen (disk or well diffusion); assay type: cell-based; conditions: for activity in the calcofluor rescue screen (turbid zone of growth): disk diffusion assay, 20 μg/disk, 30° C., two days
# Experimental: A preferred method comprises adding a test sample to a Saccharomyces cerevisiae culture containing calcofluor white or a calcofluor white derivative. The test sample is introduced to a disk or a well on a culture plate in a standard diffusion assay using solidified media, or introduced into one of a series of equivalent tissue culture tubes or bottles in a standard turbidity assay using liquid media. The culture is incubated for such time under such conditions sufficient to observe yeast cell growth inhibition in a corresponding culture or culture plate area containing calcofluor white but no test sample. The extent of growth of the culture containing or surrounding the test sample is compared with the extent of growth in the culture or culture area containing no test sample. The presence of chitin synthesis inhibition is determined by observing whether growth in the presence of test sample exceeds growth in its absence. In a culture plate, this is a turbid zone of growth surrounding the test sample. In a culture tube series, this is enhanced turbidity.
# autoclaving at 20 lbs for 15 min. Strain Y294 having genotype MATα leu2-3,112 ura3-52 his3Δ trp1 GAL+[CIR+] inoculated into this liquid media and grown overnight, an OD600 of ˜5 or greater, while being shaken at 30° C.
# The plates are poured and test samples are placed on the plates. A ¼″ disk containing […] of nikkomycin Z is used as a positive control. The plates are incubated at 30° C. for two days and then examined for activity. Actives produce a turbid zone surrounding the test sample.
# All compounds are tested by disk diffusion assay using the method of this invention at a rate of 20 μg/disk.
# Botrytis cinerea = experiment: Calcofluor rescue with filamentous fungus instead of S. cerevisiae; assay type: cell-based; conditions: does not grow in the media
# Description: as §1
# [2] = test system: Pseudocercosporella herpotrichoides; experiment: as above; assay type: cell-based; conditions: does not grow in the media
# Description: as §1
# [3] = test system: selected phytopathogenic fungi (Pseudocercosporella herpotrichoides, Rhizoctonia solani, Fusarium oxysporum); experiment: In vitro fungicide discovery screen (growth in nutrient agar); assay type: cell-based
# Experimental: Standard in vitro and in vivo fungicide discovery screens are employed as tertiary tests to prioritize actives from the calcofluor rescue screen and the secondary screens. […] These include fungi causing wheat eyespot (Pseudocercosporella herpotrichoides), rice sheath blight (Rhizoctonia solani) and damping off (Fusarium oxysporum); all synthesize chitin-containing cell walls. High potency fungicides are active against these species in the 10 ppm range (10 μg/ml), while nikkomycin Z can be detected at ˜70 μg/ml in the calcofluor rescue assay if 30 μl volumes are tested in welled plates.
# [4] = test system: strain ECY36-3C (relies on chitin synthase isozyme 3); experiment: In vivo secondary screen, growth of chitin synthase mutant yeast; assay type: cell-based, Saccharomyces cerevisiae; conditions: for growth of strain ECY36-3C (in words): strain producing only Chs3
# Description: (§2) One type of calcofluor rescue secondary screen is an in vivo test that assays the effect of compounds on the growth of chitin synthase mutant yeast strains that rely on a single chitin synthase isozyme for survival. A number of these strains have been described, such as the strains that rely on chitin synthase isozymes 2 or 3 described by Shaw, J. A., et al. (J. Cell Biol. 114: 111-123 (1991)) and similar strains described in the Examples section below. In this type of secondary screening test, the test sample added to and incubated in a culture of a mutant yeast strain producing only chitin synthase 2 or 3 (denoted, respectively, Chs2 and Chs3) for such time under such conditions sufficient to observe growth in a corresponding culture containing no test sample. A comparison of the extent of growth in the culture containing test sample with growth in its absence is then made. Inhibition of growth in the presence of test sample indicates inhibition of synthase isozyme produced by the strain. Any type of growth assessment may be employed but, as in the primary calcofluor rescue screen, preferred cultures in the secondary screen are solid, with test samples applied to a disk or well, so that cell growth can be easily determined by visual inspection.
# (§3) Especially preferred in vivo secondary screens employ a pair of genetically related strains, one producing one isozyme, e.g., Chs2, and the other producing a different isozyme, e.g., Chs3. Using pairs allows for the simultaneous determination that culture conditions are appropriate for growth in the absence of inhibition and the identification of which isozyme may be affected by inhibition. The pairs, for example, include the ECY36-3C and ECY36-3D strains described by Shaw, cited above, that produce only Chs3 and Chs 2, respectively, and similar pairs such as SSY640-10A (containing only Chs3) and SSY-638-3B (containing only Chs 2) described in the Examples below. […] In a similar manner, a comparison of differential effects observed in the growth of strain pairs in the presence of a test sample allows for the putative identification of which isozyme is affected by the sample.
# (§4) In Vivo Secondary Screens. The in vivo calcofluor rescue secondary screens assay the differential effect of compounds on the growth of two pairs of yeast strains. Each strain in the pairs, denoted ECY36-3C and ECY36-3D and SSY640-10A and SSY638-3B, is a chitin synthase mutant that relies on the expression of a single chitin synthase isozyme for its survival.
# (§5) Strains ECY36-3C and ECY36-3D are described by Shaw, J. A., et al., cited above. ECY36-3C has the genotype MATa, chs1-23, chs2::LEU2, ura3-52, leu2-3,112, trp1-1 and ECY36-3D has the genotype MATa, chs1-23, ca1^R1 (chs3^−), ura3-52, leu2-3,112, trp1-1. Both strains are segregants from crossing strain ECY33-18A (Mata, chs1-23, ca1^R1, ura3-52, leu2-3,112, trp1-1) and ECY19 Δ22 2-5B (MATα, chs1-23, chs2::LEU2, ura3-52, leu2-3,112, trp1-1) using standard methodology. ECY36-3C relies on the expression of chitin synthase isozyme 3 for survival, and ECY36-3D relies on chitin synthase isozyme 2 (Chs2).
# (§6) Strains ECY36-3C and ECY36-3D are inoculated in SD medium containing nutritional supplements appropriate to strain growth, e.g., containing about 0.01% (w/v) each of uracil, adenine sulfate, leucine, tryptophan, histidine, and lysine. When the cultures reach stationary phase (typically after 24 hours), they are used immediately or stored at 4° C. for up to a week before use. The cultures are diluted 1/100 into YEPD medium containing 2% agar which has been maintained at ˜50° C., immediately poured into petri dishes, and allowed to cool. Test compounds are applied to cellulose filter disks as described in Example 1 above (e.g., nikkomycin Z, 4 μl of a 5 mg/ml solution), and the disks are applied to the agar. Plates are incubated at 30° C. overnight and growth inhibitory zones are measured around the disks after 24 hours. […]
# [5] = test system: strain ECY36-3D (relies on chitin synthase isozyme 2); experiment: as above; assay type: cell-based, Saccharomyces cerevisiae; conditions: for growth of strain ECY36-3D (in words): strain producing only Chs2
# Description: as §2, §3, §4, §5, §6
# [6] = test system: strain SSY638-3B (containing only Chs2); experiment: as above; assay type: cell-based, Saccharomyces cerevisiae
# Description: as §3, §4
# (§7) Strain SSY640-10A has genotype chs1::HIS3, chs2::TRP1, his3, trp1, ade2, ade3, leu2, lys2, ura3 (possible cmk1Δ 1::HIS3). […]
# [7] = test system: strain SSY640-10A (containing only Chs3); experiment: as above; assay type: cell-based, Saccharomyces cerevisiae
# Description: as §3, §4, §7
# A.T.C.C. strain S288c = experiment: Comparison growth inhibition screen with strain S288c; assay type: cell-based, Saccharomyces cerevisiae; conditions: same conditions at the same levels as Table III
# Chs3 = target: T1, Chs3 (Saccharomyces cerevisiae, UniProt P29465); experiment: In vitro chitin synthase enzyme assay (incorporation of UDP-14C-N-acetylglucosamine); assay type: biochemical
# T1 construct: To assay Chs3 activity, membranes from cells lacking Chs1 and, preferably, Chs2 are prepared; endogenous in cells; host or cells: S. cerevisiae strains ECY36-3C, JW17-11/1A/FOA or SSY640-10A (crude membrane fraction)
# T1 sequence (P34226 1-693): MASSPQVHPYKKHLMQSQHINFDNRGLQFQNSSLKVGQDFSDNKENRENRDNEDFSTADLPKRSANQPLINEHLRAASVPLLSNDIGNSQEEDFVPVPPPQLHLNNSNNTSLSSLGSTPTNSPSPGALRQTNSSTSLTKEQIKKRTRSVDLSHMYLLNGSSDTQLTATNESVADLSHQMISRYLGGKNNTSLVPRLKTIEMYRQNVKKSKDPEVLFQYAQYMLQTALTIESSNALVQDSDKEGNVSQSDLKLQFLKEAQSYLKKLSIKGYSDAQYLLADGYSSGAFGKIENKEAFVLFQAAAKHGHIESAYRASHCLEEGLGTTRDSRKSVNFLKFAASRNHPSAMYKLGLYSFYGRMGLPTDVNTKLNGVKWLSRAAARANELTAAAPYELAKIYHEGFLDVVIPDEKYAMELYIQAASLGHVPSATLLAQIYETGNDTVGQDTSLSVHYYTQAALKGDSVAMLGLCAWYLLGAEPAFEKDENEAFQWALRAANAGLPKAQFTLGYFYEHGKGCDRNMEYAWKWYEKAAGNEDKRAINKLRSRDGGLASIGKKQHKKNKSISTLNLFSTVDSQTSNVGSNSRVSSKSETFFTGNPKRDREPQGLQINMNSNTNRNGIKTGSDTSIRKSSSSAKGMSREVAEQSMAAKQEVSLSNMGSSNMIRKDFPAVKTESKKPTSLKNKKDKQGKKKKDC
# T1 sequence (P29465 whole entry): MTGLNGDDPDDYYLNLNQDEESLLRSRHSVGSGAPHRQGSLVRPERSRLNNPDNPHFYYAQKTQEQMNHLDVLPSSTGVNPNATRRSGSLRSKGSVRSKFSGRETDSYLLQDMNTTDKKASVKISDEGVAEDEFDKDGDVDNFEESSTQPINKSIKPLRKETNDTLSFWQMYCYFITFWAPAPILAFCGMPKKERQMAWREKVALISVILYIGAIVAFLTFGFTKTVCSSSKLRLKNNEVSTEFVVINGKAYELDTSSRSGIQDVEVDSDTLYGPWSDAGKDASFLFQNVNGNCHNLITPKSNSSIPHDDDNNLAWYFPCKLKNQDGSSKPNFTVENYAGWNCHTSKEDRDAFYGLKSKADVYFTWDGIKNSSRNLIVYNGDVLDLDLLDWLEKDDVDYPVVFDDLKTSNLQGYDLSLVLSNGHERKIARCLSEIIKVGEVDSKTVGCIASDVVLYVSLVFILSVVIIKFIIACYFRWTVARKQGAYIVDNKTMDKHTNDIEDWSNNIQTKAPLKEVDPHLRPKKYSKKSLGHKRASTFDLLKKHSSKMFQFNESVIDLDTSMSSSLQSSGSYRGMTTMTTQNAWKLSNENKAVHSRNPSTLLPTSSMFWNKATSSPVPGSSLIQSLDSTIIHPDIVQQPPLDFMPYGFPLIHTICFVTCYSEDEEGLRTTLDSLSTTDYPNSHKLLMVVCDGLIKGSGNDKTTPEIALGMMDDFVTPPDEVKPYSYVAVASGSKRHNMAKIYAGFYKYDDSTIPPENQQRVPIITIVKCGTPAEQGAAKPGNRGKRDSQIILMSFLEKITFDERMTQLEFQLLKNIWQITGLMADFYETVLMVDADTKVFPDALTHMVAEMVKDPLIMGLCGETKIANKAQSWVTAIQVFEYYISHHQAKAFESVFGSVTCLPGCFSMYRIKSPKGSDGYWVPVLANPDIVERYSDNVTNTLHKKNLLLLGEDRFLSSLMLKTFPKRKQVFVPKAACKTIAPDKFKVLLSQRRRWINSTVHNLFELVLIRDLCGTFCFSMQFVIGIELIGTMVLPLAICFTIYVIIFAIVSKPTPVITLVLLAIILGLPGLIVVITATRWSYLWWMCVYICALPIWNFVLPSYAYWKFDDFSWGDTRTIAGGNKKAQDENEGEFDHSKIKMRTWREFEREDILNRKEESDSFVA
# Experimental: In Vitro Secondary Screens. These enzyme assays detect inhibition of individual chitin synthase isozymes Chs1, Chs2, and Chs3 by monitoring the incorporation of radioactive chitin precursor uridine diphospho-N-acetyl glucosamine into acid precipitable counts (i.e., chitin).
# To assay Chs3 activity, membranes from cells lacking Chs1 and, preferably, Chs2 are prepared by a modification of the method of Orlean, P. cited above. Strain ECY36-3C, JW17-11/1A/FOA or SSY640-10A are inoculated into YEPD, and the culture is shaken at 30° C. Cells are harvested while still growing exponentially, e.g., at O.D.600 of ˜0.4 as measured in a Guilford Response™ spectrophotometer, washed once in 50 mM Tris-HCl, pH 7.5, containing 0.01 mM EDTA and 1 mM DTT (1,4-dithiothreitol), and resuspended in about 3 volumes of this buffer. Glass beads of about 200 to 300 micron diameter are added to just below the meniscus of the suspension, and cells are shaken by vortexing or in a Bead-Beater™ until lysis occurs, which is monitored microscopically. During this procedure, the cell suspension is kept below 10° C. by cooling in ice. The extract is collected, the glass beads are washed with the same buffer, and the wash is added to the extract. The volume is adjusted to about 20 original volumes with the same buffer.
# The cell walls and debris are removed by a 10 minute centrifugation at about 3000×g. The samples are centriuged at 100,000×g for 40 minutes at 4° C. The membrane pellets are resuspended in about one original volume 50 mM Tris-HCl, pH 7.5 containing 0.01 mM EDTA which may contain 33% glycerol, and subjected to Dounce homogenization.
# Ten μl of membranes are incubated with shaking in the presence of putative inhibitors in a standard 50 μl assay mixture containing 1 mM uridine diphospho-(^14C)-N-acetyl-glucosamine (400,000 cpm/μmole), 40 mM N-acetylglucosamine, 50 mM Tris-HCl, pH 7.5, and 5 mM MgCl2 at 25° C. The reaction is stopped after 90 minutes by addition of 10% trichloroacetic acid, and the amount of product quantified by filtration and scintillation counting.
# Chs1 = Chs1 (Saccharomyces cerevisiae, UniProt P08004); conditions: Cabib, Antimicrob. Agents Chemother. 35: 170-173 (1991); cited from earlier work
# Sequence of Chs1 (P08004 whole entry): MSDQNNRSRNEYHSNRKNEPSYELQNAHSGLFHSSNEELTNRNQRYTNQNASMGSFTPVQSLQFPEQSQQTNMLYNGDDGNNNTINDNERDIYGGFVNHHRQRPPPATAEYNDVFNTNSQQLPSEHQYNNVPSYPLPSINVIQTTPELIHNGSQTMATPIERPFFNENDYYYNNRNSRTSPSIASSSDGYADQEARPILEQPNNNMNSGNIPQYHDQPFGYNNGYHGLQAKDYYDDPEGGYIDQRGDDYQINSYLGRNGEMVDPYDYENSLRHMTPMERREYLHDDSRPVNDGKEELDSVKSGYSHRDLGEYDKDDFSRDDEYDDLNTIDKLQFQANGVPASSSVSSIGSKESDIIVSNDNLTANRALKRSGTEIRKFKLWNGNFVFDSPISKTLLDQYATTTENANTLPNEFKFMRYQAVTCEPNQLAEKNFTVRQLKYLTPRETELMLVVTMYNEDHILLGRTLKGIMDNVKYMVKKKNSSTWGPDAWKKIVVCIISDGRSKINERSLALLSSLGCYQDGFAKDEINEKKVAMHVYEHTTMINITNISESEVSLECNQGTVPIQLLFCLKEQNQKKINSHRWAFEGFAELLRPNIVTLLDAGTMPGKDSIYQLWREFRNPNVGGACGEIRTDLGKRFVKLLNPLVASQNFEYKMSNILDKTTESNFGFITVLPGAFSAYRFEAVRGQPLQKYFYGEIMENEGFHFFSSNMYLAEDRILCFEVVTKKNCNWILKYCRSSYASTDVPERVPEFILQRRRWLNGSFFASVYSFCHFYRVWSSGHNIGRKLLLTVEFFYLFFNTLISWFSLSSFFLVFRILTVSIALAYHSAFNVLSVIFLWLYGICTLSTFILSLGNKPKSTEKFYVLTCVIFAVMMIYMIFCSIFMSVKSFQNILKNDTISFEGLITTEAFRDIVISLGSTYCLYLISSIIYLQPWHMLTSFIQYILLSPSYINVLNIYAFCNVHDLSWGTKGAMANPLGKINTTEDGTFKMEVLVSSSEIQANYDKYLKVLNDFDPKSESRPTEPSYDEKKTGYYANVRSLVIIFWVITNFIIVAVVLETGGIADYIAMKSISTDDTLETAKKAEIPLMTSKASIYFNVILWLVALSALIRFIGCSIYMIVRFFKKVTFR
# [8] = filter disk on YEPD agar, 24 hours, total applied: Nikkomycin Z 25 μg, Test Compound 1 45 μg, Test Compound 2 200 μg
smiles,measurement,setting,value
"Nc1nc(=O)[nH]cc1F [5-F-cytocine, 5-fluoro-cytosine]",growth in calcofluor culture,Aspergillus nidulans,extensive growth
same,growth in calcofluor culture,Neurospora crassa,extensive growth
C[C@@H]([C@H](N)C(=O)N[C@H](C(=O)O)[C@H]1O[C@@H](n2ccc(=O)[nH]c2=O)[C@H](O)[C@@H]1O)[C@H](O)c1ccc(O)cn1 [nikkomycin Z],concentration at which detected in the calcofluor rescue assay,[1]; 30 μl volumes tested in welled plates,~70 µg/mL
same,activity in the calcofluor rescue screen (turbid zone of growth),[1],active
same,growth in calcofluor culture,Aspergillus nidulans,extensive growth
same,rescue from calcofluor,Botrytis cinerea,no rescue
same,growth in calcofluor culture,Neurospora crassa,extensive growth
same,rescue from calcofluor,[2],no rescue
same,activity against phytopathogenic fungi,[3]; 25 μg/ml,weakly active
same,differential effect on Chs3-only versus Chs2-only strains,[4]; comparison of strain pairs,inhibits Chs3 to a significantly greater extent than Chs2
same,"zone of inhibition, ECY36-3C",[4]; [8],21 mm
same,growth of strain ECY36-3C (in words),[4],inhibited
same,growth of strain ECY36-3C (in words),[4]; listed as Nikkomycin Z,inhibit the growth
same,"zone of inhibition, ECY36-3D",[5]; [8],0 mm
same,growth of strain ECY36-3D (in words),[5],unaffected
same,growth of strain ECY36-3D (in words),[5]; listed as Nikkomycin Z,does not inhibit growth
same,growth of strain SSY638-3B (in words),[6],unaffected
same,growth of strain SSY640-10A (in words),[7],inhibited
same,growth inhibition of strain S288c,A.T.C.C. strain S288c,no inhibition
same,% Chs3 Activity,Chs3; 1 μM inhibitor,˜80%
same,% Chs3 Activity,Chs3; 2.5 μM inhibitor,˜55%
same,% Chs3 Activity,Chs3; 5 μM inhibitor,˜41%
same,chitin synthase isozyme affected,"Chs3; secondary screening, Chs1, Chs2, Chs3 assays",act preferentially on the Chs3 isozyme
same,inhibition of Chs1 relative to Chs2,Chs1,inhibit the activity of Chs1 to a much greater extent than Chs2
NC(=O)OC[C@H](O)[C@@H](O)[C@H](N)C(=O)N[C@H](C(=O)O)[C@H]1O[C@@H](n2cc(C(=O)O)c(=O)[nH]c2=O)[C@H](O)[C@@H]1O [polyoxin D],activity in the calcofluor rescue screen (turbid zone of growth),[1],inactive
same,growth in calcofluor culture,Aspergillus nidulans,extensive growth
same,rescue from calcofluor,Botrytis cinerea,no rescue
same,growth in calcofluor culture,Neurospora crassa,extensive growth
same,rescue from calcofluor,[2],no rescue
same,activity against phytopathogenic fungi,"[3]; 10 μg/ml concentration range, especially against Rhizoctonia",excellent activity
same,% Chs3 Activity,Chs3; 10 μM inhibitor,100%
same,% Chs3 Activity,Chs3; 30 μM inhibitor,˜40%
same,% Chs3 Activity,Chs3; 90 μM inhibitor,˜16%
CCC(CC)Nc1c([N+](=O)[O-])cc(C)c(C)c1[N+](=O)[O-] [prowl],growth in calcofluor culture,Aspergillus nidulans,extensive growth
same,growth in calcofluor culture,Neurospora crassa,extensive growth
COC(=O)c1ccccc1S(=O)(=O)NC(=O)Nc1nc(C)cc(C)n1 [sulfometuron methyl],growth in calcofluor culture,Aspergillus nidulans,extensive growth
same,growth in calcofluor culture,Neurospora crassa,extensive growth
